In PMC12649549, “Sequence Permutation Generated Lysine and Tryptophan-Rich Antimicrobial Peptides with Enhanced Therapeutic Index” (Antibiotics, 2025):
Read-outs that look alike come from different tables or passages of the source.

Columns and labels:
[1] = test system: Both Gram-positive and -negative bacteria; assay: Geometric mean MIC, therapeutic index and fold changes of MIC, whole panel of strains; type: cell-based
Description: In this study, we aimed to investigate the potential of W5K series peptides for therapeutic use. To evaluate their efficacy for antibacterial therapy, we used the Therapeutic Index (TI) as a measure of their cell selectivity. The TI was calculated as the ratio of the concentration causing 10% hemolysis of human red blood cells (HC10) to the geometric mean minimum inhibitory concentration (GM) of the peptides against both Gram-negative and Gram-positive bacteria. This parameter was used to quantitatively assess the balance between antibacterial potency and cytotoxicity among the W5K derivatives.
(§1) The antibacterial activities of the peptides in Müller-Hinton (MH) broth and modified LYM broth were determined using the standard broth microdilution method as per Clinical and Laboratory Standards Institute (CLSI) guidelines. The LYM broth was prepared with specific components and adjusted to different conditions, including varying concentrations of NaCl and MgCl2, and different pH levels. To prepare the LYM broth, 5.4 mM KCl, 5.6 mM Na2HPO4, 0.5 mM MgSO4, and 1.0 mM sodium citrate were added. Additionally, 0.4 mg of ZnCl2, 2.0 mg of FeCl3·6H2O, 0.1 mg of CuSO4·5H2O, 0.1 mg of MnSO4·H2O, 0.1 mg of Na2B4O7∙10H2O, 700 mg of amino acid mixtures without tryptophan (Takara Bio Inc., San Jose, CA, USA), and 20 mg of L-tryptophan were added per liter of medium. The pH was adjusted to 7.4, and a vitamin mixture (100X, Sigma) and glucose concentration of 2% were added. For different conditions of LYM broth, NaCl concentrations of 300, 200, 150, and 50 mM, MgCl2 concentrations of 2.5, 1.5, and 0.5 mM, and pH levels of 6.5, 5.5, and 4.5 were adjusted. Bacterial strains were incubated in MH broth overnight, regrown, and diluted to a final concentration of 5 × 10^5 CFU/mL. Peptides were added to each well at final concentrations of 50, 25, 12.5, 6.25, 3.13, 1.56, and 0.78 µg/mL, and 99 µL of diluted microbes was loaded into each well of a polypropylene 96-well plate. […] The Morpheus HeatMap software (https://software.broadinstitute.org/morpheus/) was used to display MIC values on a color scale. All experiments were independently repeated three times.

[2] = test system: Pseudomonas aeruginosa Migula (ATCC 27853)
Outline: (§2)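 Broth microdilution per CLSI in Müller-Hinton broth and modified LYM broth (pH 7.4; variants with 50–300 mM NaCl, 0.5–2.5 mM MgCl2, or pH 6.5–4.5). Inoculum 5 × 10^5 CFU/mL; peptides tested at 0.78–50 µg/mL final. MIC read; three independent repeats.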

[3] = test system: S. aureus ATCC 33591
Outline: as §2

[4] = test system: S. aureus ATCC 33593
Outline: as §2

[5] = test system: S. aureus ATCC 33592
Description: The antibacterial and salt-resistant activity of the peptides was tested using Escherichia coli (ATCC 25922), Pseudomonas aeruginosa Migula (ATCC 27853), Acinetobacter sp. (BCRC number 14B0091, BCRC number 14B0097, and BCRC number 14B0100), and Staphylococcus aureus sp. strains (ATCC 25923, ATCC 33591, ATCC 33592, ATCC 33593, and ATCC 6538). All bacteria were obtained from the Food Industry Research and Development Institute (Hsinchu, Taiwan) and cultured in sterilized Müller-Hinton (MH) broth at 37 °C and 200 rpm for 8 h. The inoculum concentrations were determined by measuring the optical density at 600 nm (OD 600 = 1, approximately 10^8 CFU/mL) using an Ultrospec 2100 pro UV-Visible spectrophotometer (Biochrom Ltd., Cambridge, UK) after 8 h of culture.
as §1, with “For different conditions of LYM broth, NaCl concentrations of 300, 200, 150, and 50 mM, MgCl2 concentrations of 2.5, 1.5, and 0.5 mM, and pH levels of 6.5, 5.5, and 4.5 were adjusted.” left out

[6] = LYM broth, 0 mM NaCl, 16 h, 37 °C
[7] = LYM broth, 50 mM NaCl, 16 h, 37 °C
[8] = LYM broth, 100 mM NaCl, 16 h, 37 °C
[9] = LYM broth, 200 mM (NaCl), 16 h, 37 °C
[10] = LYM broth, 300 mM (NaCl), 16 h, 37 °C
[11] = MH broth, 5 × 10^5 CFU/mL, 16 h, 37 °C, repeated three times

Ac-KWRKWLKWLAKKK-NH2 [Peptide W5K01]
GM G−/+ (geometric mean of the MIC values) ([1]; Both Gram-positive and -negative bacteria, MH broth, MIC >50 µg/mL counted as 100 µg/mL): 15.4 µg/mL | Therapeutic Index (TI) G−/+ ([1]; HC10/GM, both Gram-positive and -negative bacteria): 4.6 | weakening of bactericidal efficacy (MIC) ([1]; LYM broth, 2.5 mM MgCl2): 4 fold | folds higher MIC values than W5KA9W ([1]; MH broth, in most bacteria strains): 2–4 fold | MIC [2, 6]: 3.13 µg/mL | MIC ([2]; LYM broth, 0.5 mM MgCl2): 3.13 µg/mL | MIC ([2]; LYM broth, 1.5 mM MgCl2): 6.25 µg/mL | MIC ([2]; LYM broth, 2.5 mM MgCl2): 12.5 µg/mL | MIC [2, 7]: 6.25 µg/mL | MIC [2, 8]: 12.5 µg/mL | MIC [2, 9]: >50 µg/mL | MIC [2, 10]: >50 µg/mL | MIC ([2]; LYM broth, pH 4.5): 3.13 µg/mL | MIC ([2]; LYM broth, pH 5.5): 3.13 µg/mL | MIC ([2]; LYM broth, pH 6.5): 1.56 µg/mL | MIC [2, 11]: 12.5 µg/mL | MIC [3, 6]: 6.25 µg/mL | MIC ([3]; LYM broth, 0.5 mM MgCl2): 6.25 µg/mL | MIC ([3]; LYM broth, 1.5 mM MgCl2): 6.25 µg/mL | MIC ([3]; LYM broth, 2.5 mM MgCl2): 6.25 µg/mL | MIC [3, 7]: 12.5 µg/mL | MIC [3, 8]: 12.5 µg/mL | MIC [3, 9]: 25 µg/mL | MIC [3, 10]: 50 µg/mL | MIC ([3]; LYM broth, pH 4.5): 6.25 µg/mL | MIC ([3]; LYM broth, pH 5.5): 6.25 µg/mL | MIC ([3]; LYM broth, pH 6.5): 3.13 µg/mL | MIC [3, 11]: 50 µg/mL | MIC [4, 6]: 6.25 µg/mL | MIC ([4]; LYM broth, 0.5 mM MgCl2): 6.25 µg/mL | MIC ([4]; LYM broth, 1.5 mM MgCl2): 6.25 µg/mL | MIC ([4]; LYM broth, 2.5 mM MgCl2): 6.25 µg/mL | MIC [4, 7]: 6.25 µg/mL | MIC [4, 8]: 12.5 µg/mL | MIC [4, 9]: 25 µg/mL | MIC [4, 10]: 50 µg/mL | MIC ([4]; LYM broth, pH 4.5): 6.25 µg/mL | MIC ([4]; LYM broth, pH 5.5): 3.13 µg/mL | MIC ([4]; LYM broth, pH 6.5): 3.13 µg/mL | MIC [4, 11]: 50 µg/mL | MIC [5, 6]: 6.25 µg/mL | MIC ([5]; LYM broth, 0.5 mM MgCl2): 6.25 µg/mL | MIC ([5]; LYM broth, 1.5 mM MgCl2): 6.25 µg/mL | MIC ([5]; LYM broth, 2.5 mM MgCl2): 12.5 µg/mL | MIC [5, 7]: 6.25 µg/mL | MIC [5, 8]: 12.5 µg/mL | MIC [5, 9]: 25 µg/mL | MIC [5, 10]: 50 µg/mL | MIC ([5]; LYM broth, pH 4.5): 6.25 µg/mL | MIC ([5]; LYM broth, pH 5.5): 6.25 µg/mL | MIC ([5]; LYM broth, pH 6.5): 6.25 µg/mL | MIC [5, 11]: 50 µg/mL
